Assay results from PubChem BioAssay AID330 (DTP/NCI, 2004).
“And” between values parts separate entries of the source, which are not always exact repeats. Identical values can stand only once. Inconclusive results and toxic doses are left out.

System: P388 leukemia ip, CD2F1 mice, survival T/C
Test: NCI In Vivo Anticancer Drug Screen. Data for tumor model P388 Leukemia (intraperitoneal) in CD2F1 (CDF1) mice
Conditions: endpoint: median survival time, higher = longer survival
Method in brief: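 Mice carrying the transplanted tumor received test compound or vehicle. Survival was recorded in each group, and the value is the treated-group measurement divided by that of the vehicle-treated control group.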

[1] = dose: 25.0 mg/kg/injection, schedule: Q01DX009 (ip), vehicle: Klucel (hydroxypropylcellulose) (HPC)
[2] = dose: 25.0 mg/kg/injection, schedule: Q01DX009 (ip), vehicle: saline with Tween-80
[3] = dose: 100.0 mg/kg/injection, schedule: Q01DX009 (ip), vehicle: saline with Tween-80
[4] = dose: 50.0 mg/kg/injection, schedule: Q01DX005 (ip), vehicle: saline
[5] = dose: 100.0 mg/kg/injection, schedule: Q01DX005 (ip), vehicle: saline
[6] = dose: 200.0 mg/kg/injection, schedule: Q01DX005 (ip), vehicle: saline

COc1ccc(C(C)c2cc3c(cc2OC)OCO3)cc1O (centres undefined)
T/C (dose: 50.0 mg/kg/injection, schedule: Q01DX005 (ip), vehicle: distilled water + Tween-80): 111 % of control
T/C (dose: 100.0 mg/kg/injection, schedule: Q01DX005 (ip), vehicle: distilled water + Tween-80): 102 % of control
T/C (dose: 200.0 mg/kg/injection, schedule: Q01DX005 (ip), vehicle: distilled water + Tween-80): 105 % of control

Cc1c(COC(=O)NC(C)C)c(COC(=O)NC(C)C)c(-c2ccccc2)n1-c1ccccc1
T/C (dose: 50.0 mg/kg/injection, schedule: Q01DX005 (ip), vehicle: saline with Tween-80): 188 % of control and 192 % of control

O=[N+]([O-])O.[Cu+2].[NH-]CC[NH-].[NH-]CC[NH-]
T/C (dose: 3.12 mg/kg/injection, schedule: Q01DX009 (ip), vehicle: saline): 100 % of control
T/C (dose: 6.25 mg/kg/injection, schedule: Q01DX009 (ip), vehicle: saline): 100 % of control
T/C (dose: 12.5 mg/kg/injection, schedule: Q01DX009 (ip), vehicle: saline): 100 % of control
T/C (dose: 25.0 mg/kg/injection, schedule: Q01DX009 (ip), vehicle: saline): 92 % of control

O=c1ccc2ccccc2o1
T/C (dose: 3.12 mg/kg/injection, schedule: Q01DX009 (ip), vehicle: saline with Tween-80): 101 % of control and 108 % of control and 94 % of control
T/C (dose: 6.25 mg/kg/injection, schedule: Q01DX009 (ip), vehicle: saline with Tween-80): 100 % of control and 101 % of control and 110 % of control
T/C (dose: 12.5 mg/kg/injection, schedule: Q01DX009 (ip), vehicle: saline with Tween-80): 103 % of control and 110 % of control (2×)
T/C [1]: 100 % of control and 105 % of control
T/C [2]: 100 % of control and 110 % of control and 120 % of control
T/C (dose: 25.0 mg/kg/injection, schedule: Q04HX002 (ip), vehicle: water): 100 % of control
T/C (dose: 50.0 mg/kg/injection, schedule: Q01DX009 (ip), vehicle: Klucel (hydroxypropylcellulose) (HPC)): 105 % of control and 106 % of control and 107 % of control
T/C (dose: 50.0 mg/kg/injection, schedule: Q04HX002 (ip), vehicle: water): 104 % of control
T/C (dose: 100.0 mg/kg/injection, schedule: Q01DX009 (ip), vehicle: Klucel (hydroxypropylcellulose) (HPC)): 102 % of control and 105 % of control and 108 % of control
T/C [3]: 103 % of control and 114 % of control
T/C (dose: 100.0 mg/kg/injection, schedule: Q04HX002 (ip), vehicle: saline with Tween-80): 91 % of control
T/C (dose: 100.0 mg/kg/injection, schedule: Q04HX002 (ip), vehicle: water): 100 % of control
T/C (dose: 200.0 mg/kg/injection, schedule: Q01DX009 (ip), vehicle: Klucel (hydroxypropylcellulose) (HPC)): 119 % of control and 94 % of control
T/C (dose: 200.0 mg/kg/injection, schedule: Q04HX002 (ip), vehicle: saline with Tween-80): 59 % of control
T/C (dose: 200.0 mg/kg/injection, schedule: Q04HX002 (ip), vehicle: water): 101 % of control
T/C (dose: 400.0 mg/kg/injection, schedule: Q04HX002 (ip), vehicle: saline with Tween-80): 46 % of control

O=C1CCC2(O)[C@@H]3Cc4ccc(O)c5c4[C@]2(CCN3Cc2ccoc2)C1O5 (some centres undefined)
T/C (dose: 50.0 mg/kg/injection, schedule: Q01DX009 (ip), vehicle: saline): 124 % of control
T/C (dose: 66.0 mg/kg/injection, schedule: Q01DX009 (ip), vehicle: saline): 107 % of control and 91 % of control
T/C (dose: 100.0 mg/kg/injection, schedule: Q01DX009 (ip), vehicle: saline): 105 % of control and 121 % of control and 96 % of control
T/C (dose: 150.0 mg/kg/injection, schedule: Q01DX009 (ip), vehicle: saline): 98 % of control and 116 % of control

C=C1C(=O)OC2CC3(C)OC(=CC3=O)/C(C)=C\C(OC(=O)C3(C)OC3C)C12 (centres undefined)
T/C (dose: 1.56 mg/kg/injection, schedule: Q01DX005 (ip), vehicle: distilled water + Tween-80): 105 % of control
T/C (dose: 3.12 mg/kg/injection, schedule: Q01DX005 (ip), vehicle: distilled water + Tween-80): 99 % of control
T/C (dose: 6.25 mg/kg/injection, schedule: Q01DX005 (ip), vehicle: distilled water + Tween-80): 96 % of control
T/C (dose: 12.5 mg/kg/injection, schedule: Q01DX005 (ip), vehicle: distilled water + Tween-80): 101 % of control

CN1C(=O)C2(CC2C(=O)c2ccc(Cl)cc2)c2ccccc21 (centres undefined)
T/C (dose: 2.5 mg/kg/injection, schedule: Q04DX002 (ip), vehicle: saline with Tween-80): 108 % of control
T/C (dose: 5.0 mg/kg/injection, schedule: Q04DX002 (ip), vehicle: saline with Tween-80): 100 % of control
T/C (dose: 10.0 mg/kg/injection, schedule: Q04DX002 (ip), vehicle: saline with Tween-80): 99 % of control

CCC(=O)N(C)[C@@H]1Oc2ccc(O)cc2[C@]1(C)c1cc(O)ccc1O
T/C (dose: 60.0 mg/kg/injection, schedule: Q01DX005 (ip), vehicle: Klucel (hydroxypropylcellulose) (HPC)): 98 % of control
T/C (dose: 120.0 mg/kg/injection, schedule: Q01DX005 (ip), vehicle: Klucel (hydroxypropylcellulose) (HPC)): 97 % of control
T/C (dose: 240.0 mg/kg/injection, schedule: Q01DX005 (ip), vehicle: Klucel (hydroxypropylcellulose) (HPC)): 99 % of control

C=C1C(=O)OC2/C=C(/C)C3CC(O)C(C)(CC(OC(=O)/C(C)=C/C)C12)O3 (centres undefined)
T/C (dose: 10.0 mg/kg/injection, schedule: Q01DX009 (ip), vehicle: saline with Tween-80): 96 % of control and 105 % of control
T/C (dose: 20.0 mg/kg/injection, schedule: Q01DX009 (ip), vehicle: saline with Tween-80): 96 % of control and 107 % of control
T/C (dose: 40.0 mg/kg/injection, schedule: Q01DX009 (ip), vehicle: saline with Tween-80): 109 % of control and 119 % of control
T/C (dose: 80.0 mg/kg/injection, schedule: Q01DX009 (ip), vehicle: saline with Tween-80): 123 % of control and 117 % of control

CC1(C)Cc2[nH]c3ccccc3c2C(C)(C)N1
T/C (dose: 60.0 mg/kg/injection, schedule: Q01DX005 (ip), vehicle: saline with Tween-80): 105 % of control and 99 % of control
T/C (dose: 120.0 mg/kg/injection, schedule: Q01DX005 (ip), vehicle: saline with Tween-80): 100 % of control
T/C (dose: 240.0 mg/kg/injection, schedule: Q01DX005 (ip), vehicle: saline with Tween-80): 91 % of control

CNC(=O)NC1OC(CO)C(O)C1O (centres undefined)
T/C (dose: 100.0 mg/kg/injection, schedule: Q01DX001 (ip), vehicle: water): 97 % of control
T/C (dose: 200.0 mg/kg/injection, schedule: Q01DX001 (ip), vehicle: water): 103 % of control
T/C (dose: 400.0 mg/kg/injection, schedule: Q01DX001 (ip), vehicle: water): 104 % of control

Nc1ccc(Nc2ccncc2)cc1
T/C (dose: 6.25 mg/kg/injection, schedule: Q01DX009 (ip), vehicle: Klucel (hydroxypropylcellulose) (HPC)): 100 % of control
T/C (dose: 12.5 mg/kg/injection, schedule: Q01DX009 (ip), vehicle: Klucel (hydroxypropylcellulose) (HPC)): 95 % of control
T/C [1]: 100 % of control

CCOc1ccc2nc3cc(N=Nc4ccc5c(N)c6cc(OCC)ccc6nc5c4)ccc3c(N)c2c1
T/C [2]: 98 % of control
T/C (dose: 50.0 mg/kg/injection, schedule: Q01DX009 (ip), vehicle: saline with Tween-80): 108 % of control
T/C [3]: 120 % of control
T/C (dose: 400.0 mg/kg/injection, schedule: Q01DX009 (ip), vehicle: saline with Tween-80): 120 % of control

O=C1CN2Cc3c(sc4c3CCCC4)N=C2N1
T/C (dose: 50.0 mg/kg/injection, schedule: Q01DX005 (ip), vehicle: Klucel (hydroxypropylcellulose) (HPC)): 106 % of control
T/C (dose: 100.0 mg/kg/injection, schedule: Q01DX005 (ip), vehicle: Klucel (hydroxypropylcellulose) (HPC)): 102 % of control
T/C (dose: 200.0 mg/kg/injection, schedule: Q01DX005 (ip), vehicle: Klucel (hydroxypropylcellulose) (HPC)): 99 % of control

COC1CC(CC2CCC(C)C(C(C)C(=O)O)O2)OC2(OC(C)(C3CCC(C)(C4OC(C5OC(O)(CO)C(C)CC5C)CC4C)O3)CC2C)C1C (centres undefined)
T/C (dose: 0.08 mg/kg/injection, schedule: Q01DX009 (ip), vehicle: Klucel (hydroxypropylcellulose) (HPC)): 103 % of control
T/C (dose: 0.15 mg/kg/injection, schedule: Q01DX009 (ip), vehicle: Klucel (hydroxypropylcellulose) (HPC)): 109 % of control
T/C (dose: 0.31 mg/kg/injection, schedule: Q01DX009 (ip), vehicle: Klucel (hydroxypropylcellulose) (HPC)): 104 % of control and 105 % of control and 107 % of control
T/C (dose: 2.5 mg/kg/injection, schedule: Q01DX009 (ip), vehicle: Klucel (hydroxypropylcellulose) (HPC)): 102 % of control and 123 % of control and 91 % of control
T/C (dose: 5.0 mg/kg/injection, schedule: Q01DX009 (ip), vehicle: Klucel (hydroxypropylcellulose) (HPC)): 100 % of control

C1COCCNCCOCCOCCN1
T/C [4]: 95 % of control
T/C [5]: 106 % of control
T/C [6]: 95 % of control

COC(=O)c1ncn(CC#N)n1
T/C [4]: 110 % of control
T/C [5]: 112 % of control
T/C [6]: 105 % of control
